The target of the first assay is AMPK. As to the kind of experiment: AMPK activation, enzyme-linked immunosorbent assay. Format: biochemical. The conditions noted are these: Table 2, AMPK activation, ELISA. How it is done: Compounds 1-50 of Table 1 were assayed for their ability to activate AMPK using an enzyme-linked immunosorbent assay.
Compounds 51-60 of Table 1 were assayed for their ability to activate AMPK using an enzyme-linked immunosorbent assay.
Compounds 61-131 of Table 1 were assayed for their ability to activate AMPK using an enzyme-linked immunosorbent assay.
Compounds 137-141 and 143-155 of Table 1 were assayed for their ability to activate AMPK using an enzyme-linked immunosorbent assay.
Compounds 156-160 of Table 1 were assayed for their ability to activate AMPK using an enzyme-linked immunosorbent assay.
For orientation: In an ELISA, binding on a coated surface is turned into a signal by an enzyme label.
Molecule `N#Cc1ccc(CN2CCC(NC(=O)c3cc(OC4CCN(c5ccc(C(F)(F)F)cc5)CC4)ccn3)CC2)cc1` [Compound 28, N-(1-(4-cyanobenzyl)piperidin-4-yl)-4-(1-(4-(trifluoromethyl)phenyl)piperidin-4-yloxy)picolinamide] returned a concentration for a half-maximal effect (EC50) of less than 0.1 µM.

As to `N#Cc1ccc(CN2CCC(NC(=O)c3ccnc(OC4CCN(c5ccc(C(F)(F)F)cc5)CC4)c3)CC2)cc1` [Compound 21, N-(1-(4-cyanobenzyl)piperidin-4-yl)-2-(1-(4-(trifluoromethyl)phenyl)piperidin-4-yloxy)isonicotinamide], the half-maximal effective concentration (EC50) fell in the range of 0.1 to 0.5 µM.

For `CC(C)(C)OC(=O)N1CCC(NC(=O)c2ccnc(OC3CCN(c4ccc(C(F)(F)F)cc4)CC3)c2)CC1` [Compound 15, tert-butyl 4-(2-(1-(4-(trifluoromethyl)phenyl)piperidin-4-yloxy)isonicotinamido) piperidine-1-carboxylate], the EC50 is 1 to 5 µM.

With `CC(C)(C)OC(=O)N1CCC(NC(=O)c2cc(OC3CCN(c4ccc(C(F)(F)F)cc4)CC3)ccn2)CC1` [Compound 12, tert-butyl 4-(4-(1-(4-(trifluoromethyl)phenyl)piperidin-4-yloxy)picolinamido) piperidine-1-carboxylate], the EC50 was in the range of 0.5 to 1 µM.

Molecule `CC(C)(C)OC(=O)NCCCNC(=O)c1ccc(OC2CCN(c3ccc(C(F)(F)F)cc3)CC2)cn1` [Compound 49, tert-butyl 3-(5-(1-(4-(trifluoromethyl)phenyl)piperidin-4-yloxy)picolinamido) propylcarbamate] returned an EC50 of less than 0.1 µM.

Molecule `O=C(NC1CN(Cc2ccncc2)C1)c1ccc(OC2CCN(c3ccc(C(F)(F)F)cc3)CC2)cn1` [Compound 42, N-(1-(pyridin-4-ylmethyl)azetidin-3-yl)-5-(1-(4-(trifluoromethyl)phenyl)piperidin-4-yloxy)picolinamide] yielded an EC50 of 1 to 5 µM.

`O=C(NC1CCN(Cc2ccc(F)cc2)CC1)c1cncc(OC2CCN(c3ccc(C(F)(F)F)cc3)CC2)c1` [Compound 16, N-(1-(4-fluorobenzyl)piperidin-4-yl)-5-(1-(4-(trifluoromethyl)phenyl)piperidin-4-yloxy)nicotinamide] had an EC50 of less than 0.1 µM.

Molecule `O=C(NC1CCN(Cc2ccncc2)CC1)c1ccc(OC2CCN(c3ccc(C(F)(F)F)cc3)CC2)nc1` [Compound 10, N-(1-(pyridin-4-ylmethyl)piperidin-4-yl)-6-(1-(4-(trifluoromethyl)phenyl)piperidin-4-yloxy)nicotinamide] gave an EC50 of less than 0.1 µM.

Staying with this assay, now noted: Table 4, AMPK activation, ELISA.
In turn, `O=C(NC1CCN(Cc2ccccc2)CC1)c1cc2cc(OC3CCN(c4ccc(C(F)(F)F)cc4)CC3)ccc2o1` [Compound 75, N-(1-benzylpiperidin-4-yl)-5-(1-(4-(trifluoromethyl)phenyl)piperidin-4-yloxy)benzofuran-2-carboxamide] registered a 50% effective concentration (EC50) of less than 0.1 µM.

`O=C(N[C@@H]1CCN(Cc2ccccn2)C1)c1cc2cc(OC3CCN(c4ccc(C(F)(F)F)cc4)CC3)ccc2o1` [Compound 124, (R)-N-(1-(pyridin-2-ylmethyl)pyrrolidin-3-yl)-5-(1-(4-(trifluoromethyl)phenyl)piperidin-4-yloxy)benzofuran-2-carboxamide] registered an EC50 of 1 to 10 µM.

In turn, `O=C(N[C@@H]1CCN(C(=O)c2ccncc2)C1)c1cc2cc(OC3CCN(c4ccc(C(F)(F)F)cc4)CC3)ccc2o1` [Compound 125, (R)-N-(1-isonicotinoylpyrrolidin-3-yl)-5-(1-(4-(trifluoromethyl)phenyl)piperidin-4-yloxy)benzofuran-2-carboxamide] came in with a 50% effective concentration (EC50) of 1 to 10 µM.

`CC(C)(C)OC(=O)N1CCC(NC(=O)c2cc3cc(OC4CCN(Cc5ccc(C#N)cc5)CC4)ccc3o2)CC1` [Compound 113, tert-butyl 4-(5-(1-(4-cyanobenzyl)piperidin-4-yloxy)benzofuran-2-carboxamido)piperidine-1-carboxylate] displayed a 50% effective concentration (EC50) of 0.1 to 0.5 µM.

The molecule `CC(C)(C)OC(=O)N1CCC(NC(=O)c2cc3ccc(OC4CCN(c5ccc(OC(F)(F)F)cc5)CC4)cc3o2)CC1` [Compound 81, tert-butyl 4-(6-(1-(4-(trifluoromethoxy)phenyl)piperidin-4-yloxy)benzofuran-2-carboxamido)piperidine-1-carboxylate] came in with an EC50 of 0.1 to 0.5 µM.

In turn, `Cc1c(C(=O)NC2CCN(Cc3ccncc3)CC2)oc2cc(OC3CCN(c4ccc(C(F)(F)F)cc4)CC3)ccc12` [Compound 65, 3-methyl-N-(1-(pyridin-4-ylmethyl)piperidin-4-yl)-6-(1-(4-(trifluoromethyl)phenyl)piperidin-4-yloxy)benzofuran-2-carboxamide] showed an EC50 of less than 0.1 µM.

As for `Cc1c(C(=O)NC2CCN(Cc3ccccn3)CC2)oc2cc(OC3CCN(c4ccc(C(F)(F)F)cc4)CC3)ccc12` [Compound 68, 3-methyl-N-(1-(pyridin-2-ylmethyl)piperidin-4-yl)-6-(1-(4-(trifluoromethyl)phenyl)piperidin-4-yloxy)benzofuran-2-carboxamide], the EC50 is less than 0.1 µM.

Consider `N#Cc1ccc(CN2CCC(NC(=O)c3cc4ccc(OC5CCN(c6ccc(C(F)(F)F)cc6)CC5)cc4o3)CC2)cc1` [Compound 90, N-(1-(4-cyanobenzyl)piperidin-4-yl)-6-(1-(4-(trifluoromethyl)phenyl)piperidin-4-yloxy)benzofuran-2-carboxamide], for which the EC50 is less than 0.1 µM.

The molecule `CN(C(=O)c1cc2cc(OC3CCN(c4ccc(C(F)(F)F)cc4)CC3)ccc2o1)C1CCN(Cc2ccncc2)CC1` [Compound 104, N-methyl-N-(1-(pyridin-4-ylmethyl)piperidin-4-yl)-5-(1-(4-(trifluoromethyl)phenyl)piperidin-4-yloxy)benzofuran-2-carboxamide] came in with an EC50 of 0.1 to 0.5 µM.

Turning to `Cc1c(C(=O)NC2CCN(C(=O)OC(C)(C)C)CC2)oc2cc(OC3CCN(c4ccc(C(F)(F)F)cc4)CC3)ccc12` [Compound 61, tert-butyl 4-(3-methyl-6-(1-(4-(trifluoromethyl)phenyl)piperidin-4-yloxy)benzofuran-2-carboxamido)piperidine-1-carboxylate], the concentration for a half-maximal effect (EC50) lay in the range of 0.1 to 0.5 µM.

Molecule `O=C(NC1CCN(Cc2ccncc2)CC1)c1cc2cc(OC3CCN(c4ccc(C(F)(F)F)cc4)CC3)ccc2o1` [Compound 76, N-(1-(pyridin-4-ylmethyl)piperidin-4-yl)-5-(1-(4-(trifluoromethyl)phenyl)piperidin-4-yloxy)benzofuran-2-carboxamide] yielded a concentration for a half-maximal effect (EC50) of 0.1 to 0.5 µM.

With `O=C(NC1CCN(Cc2cccnc2)CC1)c1cc2cc(OC3CCN(c4ccc(C(F)(F)F)cc4)CC3)ccc2o1` [Compound 101, N-(1-(pyridin-3-ylmethyl)piperidin-4-yl)-5-(1-(4-(trifluoromethyl)phenyl)piperidin-4-yloxy)benzofuran-2-carboxamide], the concentration giving a half-maximal response (EC50) was less than 0.1 µM.

Turning to `CN(C(=O)c1cc2cc(OC3CCN(c4ccc(C(F)(F)F)cc4)CC3)ccc2o1)C1CCN(Cc2ccccc2C#N)CC1` [Compound 111, N-(1-(2-cyanobenzyl)piperidin-4-yl)-N-methyl-5-(1-(4-(trifluoromethyl)phenyl)piperidin-4-yloxy)benzofuran-2-carboxamide], the EC50 was 0.1 to 0.5 µM.

`O=C(NC1CCN(Cc2ccccn2)CC1)c1cc2ccc(OC3CCN(c4ccc(OC(F)(F)F)cc4)CC3)cc2o1` [Compound 92, N-(1-(pyridin-2-ylmethyl)piperidin-4-yl)-6-(1-(4-(trifluoromethoxy)phenyl)piperidin-4-yloxy)benzofuran-2-carboxamide] yielded an EC50 of 0.5 to 1 µM.

`O=C(NC1CCN(Cc2ccccc2)CC1)c1cc2cc(OC3CCN(Cc4cccc(C(F)(F)F)c4)CC3)ccc2o1` [Compound 73, N-(1-benzylpiperidin-4-yl)-5-(1-(3-(trifluoromethyl)benzyl)piperidin-4-yloxy)benzofuran-2-carboxamide] showed a half-maximal effective concentration (EC50) of 0.5 to 1 µM.

As for `O=C(N[C@@H]1CCNC1)c1cc2cc(OC3CCN(c4ccc(C(F)(F)F)cc4)CC3)ccc2o1` [Compound 121, (R)-N-(pyrrolidin-3-yl)-5-(1-(4-(trifluoromethyl)phenyl)piperidin-4-yloxy)benzofuran-2-carboxamide], the concentration giving a half-maximal response (EC50) was greater than 50 µM.

With `Cc1c(C(=O)NC2CCN(Cc3ccc(F)cc3)CC2)oc2cc(OC3CCN(c4ccc(C(F)(F)F)cc4)CC3)ccc12` [Compound 63, N-(1-(4-fluorobenzyl)piperidin-4-yl)-3-methyl-6-(1-(4-(trifluoromethyl)phenyl)piperidin-4-yloxy)benzofuran-2-carboxamide], the 50% effective concentration (EC50) was less than 0.1 µM.

In turn, `O=C(N[C@@H]1CCN(Cc2ccncc2)C1)c1cc2cc(OC3CCN(c4ccc(C(F)(F)F)cc4)CC3)ccc2o1` [Compound 122, (R)-N-(1-(pyridin-4-ylmethyl)pyrrolidin-3-yl)-5-(1-(4-(trifluoromethyl)phenyl)piperidin-4-yloxy)benzofuran-2-carboxamide] returned an EC50 of 0.1 to 0.5 µM.

In turn, `NC(=O)c1ccc(CN2CCC(Oc3ccc4oc(C(=O)NC5CCN(Cc6ccncc6)CC5)cc4c3)CC2)cc1` [Compound 131, 5-(1-(4-carbamoylbenzyl)piperidin-4-yloxy)-N-(1-(pyridin-4-ylmethyl)piperidin-4-yl)benzofuran-2-carboxamide] showed a half-maximal effective concentration (EC50) of 1 to 10 µM.

The assay is the same for the next values; noted with them: Table 5, AMPK activation, ELISA.
In the case of `O=C(NC1CCN(Cc2ccncc2)CC1)c1cc2cc(OC3CCN(c4ccc(C(F)(F)F)cc4)CC3)ccc2s1` [Compound 138, N-(1-(pyridin-4-ylmethyl)piperidin-4-yl)-5-(1-(4-(trifluoromethyl)phenyl)piperidin-4-yloxy)benzo[b]thiophene-2-carboxamide], the EC50 is less than 0.1 µM.

Take `O=C(NC1CCN(Cc2ccncc2)CC1)c1sc2cc(OC3CCN(c4ccc(C(F)(F)F)cc4)CC3)ccc2c1Cl` [Compound 151, 3-chloro-N-(1-(pyridin-4-ylmethyl)piperidin-4-yl)-6-(1-(4-(trifluoromethyl)phenyl)piperidin-4-yloxy)benzo[b]thiophene-2-carboxamide]: the EC50 is less than 0.1 µM.

As a reminder, the EC50 is the concentration needed to bring the measured effect to its halfway point. Read a low EC50 as higher potency in that assay.
